These results are taken from ChEMBL document CHEMBL1133232, “The design and synthesis of thrombin inhibitors: analogues of MD805 containing non-polar surrogates for arginine at the P1 position” (Bioorg Med Chem Lett, 2000).

pKi: −log10 of the molar value.

For one assay, the target named is Prothrombin (Homo sapiens, UniProt P00734). Briefly: Compound was evaluated for its inhibitory activity against Thrombin.
The next assay addresses Coagulation factor X (Homo sapiens, UniProt P00742). Briefly: Compound was evaluated for its inhibitory activity against Coagulation factor X.
A further assay concerns the target Kallikrein-1 (Homo sapiens, UniProt P06870). Briefly: Compound was evaluated for its inhibitory activity against kallikrein.
The next assay concerns the target Serine protease 1 (Homo sapiens, UniProt P07477). Briefly: Compound was evaluated for its inhibitory activity against Trypsin.
A further assay addresses Plasminogen (Homo sapiens, UniProt P00747). Briefly: Compound was evaluated for its inhibitory activity against plasmin.

Kallikrein-1, sequence (P06870 whole entry): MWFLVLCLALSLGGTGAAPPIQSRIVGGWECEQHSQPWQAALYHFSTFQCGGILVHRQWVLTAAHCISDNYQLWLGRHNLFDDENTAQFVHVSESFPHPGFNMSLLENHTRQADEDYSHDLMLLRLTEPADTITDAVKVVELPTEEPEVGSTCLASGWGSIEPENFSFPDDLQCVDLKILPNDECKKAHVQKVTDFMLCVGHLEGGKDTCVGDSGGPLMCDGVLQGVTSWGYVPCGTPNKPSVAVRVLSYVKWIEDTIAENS
Plasminogen, sequence (P00747 97-580 limits assumed): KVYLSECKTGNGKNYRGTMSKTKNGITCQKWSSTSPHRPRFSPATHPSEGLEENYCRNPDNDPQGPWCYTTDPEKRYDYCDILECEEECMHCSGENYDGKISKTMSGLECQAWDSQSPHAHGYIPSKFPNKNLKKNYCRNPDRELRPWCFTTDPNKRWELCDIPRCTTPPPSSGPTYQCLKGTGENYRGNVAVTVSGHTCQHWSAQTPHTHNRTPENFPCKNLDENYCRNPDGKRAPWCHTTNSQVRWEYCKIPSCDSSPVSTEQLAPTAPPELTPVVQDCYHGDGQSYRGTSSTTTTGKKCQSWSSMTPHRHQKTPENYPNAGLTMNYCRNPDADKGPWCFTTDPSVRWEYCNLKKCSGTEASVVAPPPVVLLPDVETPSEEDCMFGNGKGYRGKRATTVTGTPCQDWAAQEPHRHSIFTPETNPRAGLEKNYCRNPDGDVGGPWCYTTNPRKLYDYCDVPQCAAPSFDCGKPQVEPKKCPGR
Plasminogen, sequence (P00747 581-810 limits assumed): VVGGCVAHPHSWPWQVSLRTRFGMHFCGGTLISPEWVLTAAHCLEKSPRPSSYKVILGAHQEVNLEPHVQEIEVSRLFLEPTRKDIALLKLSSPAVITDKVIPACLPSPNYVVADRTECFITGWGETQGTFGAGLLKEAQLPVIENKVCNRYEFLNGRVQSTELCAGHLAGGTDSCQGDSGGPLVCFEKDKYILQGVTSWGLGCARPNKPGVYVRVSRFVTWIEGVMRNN
Serine protease 1, sequence (P07477 whole entry): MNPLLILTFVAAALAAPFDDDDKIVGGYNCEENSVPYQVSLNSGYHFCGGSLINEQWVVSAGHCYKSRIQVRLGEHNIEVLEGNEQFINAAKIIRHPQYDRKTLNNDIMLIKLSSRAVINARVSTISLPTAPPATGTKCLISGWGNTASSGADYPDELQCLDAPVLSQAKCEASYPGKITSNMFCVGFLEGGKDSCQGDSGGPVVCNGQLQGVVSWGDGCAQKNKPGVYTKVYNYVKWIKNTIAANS
Coagulation factor X, sequence (P00742 41-179 limits assumed): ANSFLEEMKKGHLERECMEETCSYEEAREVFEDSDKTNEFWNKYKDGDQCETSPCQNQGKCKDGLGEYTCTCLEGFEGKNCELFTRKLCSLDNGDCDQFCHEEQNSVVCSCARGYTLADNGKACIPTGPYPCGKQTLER
Coagulation factor X, sequence (P00742 235-488 limits assumed): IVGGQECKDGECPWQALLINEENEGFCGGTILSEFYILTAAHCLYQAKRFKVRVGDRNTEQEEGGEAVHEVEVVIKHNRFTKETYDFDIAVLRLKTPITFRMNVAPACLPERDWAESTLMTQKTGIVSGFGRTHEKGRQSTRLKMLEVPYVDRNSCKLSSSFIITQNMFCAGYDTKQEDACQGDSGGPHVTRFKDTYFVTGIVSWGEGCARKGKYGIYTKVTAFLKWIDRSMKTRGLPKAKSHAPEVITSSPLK

For the compound `CC1(C)CNc2c(cccc2S(=O)(=O)N[C@@H](Cc2cccnc2)C(=O)N2CCC(CCO)CC2)C1`, the pKi at Prothrombin is 4.71.
Consider `CC1(C)CNc2c(cccc2S(=O)(=O)N[C@@H](CSCCCN)C(=O)N2CCC(CCF)CC2)C1`, for which the pKi is 4.06 at Coagulation factor X; below 4.06 on Kallikrein-1; 5.88 on Serine protease 1; 6.90 on Prothrombin; 5.40 on Plasminogen.
As for `CC1(C)CNc2c(cccc2S(=O)(=O)N[C@@H](CSCCCN)C(=O)N2CCC(CCO)CC2)C1`, the pKi at Coagulation factor X is 4.06; at Kallikrein-1 it was below 4.06; at Serine protease 1, 5.75; at Prothrombin, 6.55; on Plasminogen, 5.21.
`CC1CNc2c(cccc2S(=O)(=O)N[C@@H](CCc2ccccc2)C(=O)N2CCC(CCO)CC2)C1` (some centres undefined) gave a negative-log Ki (pKi) on Prothrombin of 4.33.
The same measure, in the same setting: to `CC1(C)CNc2c(cccc2S(=O)(=O)NC(Cc2nc(-c3ccccc3)cs2)C(=O)N2CCC(CCO)CC2)C1` (centres undefined) belongs 5.48.
In turn, `CC1CNc2c(cccc2S(=O)(=O)N[C@@H](Cc2nc3ccccc3o2)C(=O)N2CCC(CCO)CC2)C1` (some centres undefined) showed a pKi at Prothrombin of 5.51.
Still for that read-out and setting: the figure for `CC1(C)CNc2c(cccc2S(=O)(=O)NC(Cc2nc3ccncc3s2)C(=O)N2CCC(CCF)CC2)C1` (centres undefined) is 6.09.
Still for that read-out and setting: the figure for `CC1(C)CNc2c(cccc2S(=O)(=O)NC(Cc2nc3cncnc3s2)C(=O)N2CCC(CCF)CC2)C1` (centres undefined) is 5.34; for `Cc1csc(CC(NS(=O)(=O)c2cccc3c2NCC(C)(C)C3)C(=O)N2CCC(CCO)CC2)n1` (centres undefined) it is 5.66.
On the same count and under the same terms, to `CC1(C)CNc2c(cccc2S(=O)(=O)NC(Cc2nc(CN)cs2)C(=O)N2CCC(CCO)CC2)C1` (centres undefined) belongs 6.12.
For `CCC1CCN(C(=O)C(Cc2nc3ccccc3s2)NS(=O)(=O)c2cccc3c2NCC(C)(C)C3)CC1` (centres undefined), the negative-log Ki (pKi) at Coagulation factor X was 4.04; at Kallikrein-1, 4.04; at Serine protease 1 it was 3.59; at Prothrombin it was 6.61; on Plasminogen it was 3.62.
Consider `CC1CNc2c(cccc2S(=O)(=O)N[C@@H](Cc2c[nH]c3ccccc23)C(=O)N2CCC(CCO)CC2)C1` (some centres undefined), for which the negative logarithm of the Ki (pKi) at Prothrombin is 5.80.
Still for that read-out and setting: to `CC(=O)OCCC1CCN(C(=O)C(Cc2nc3ccccc3[nH]2)NS(=O)(=O)c2cccc3c2NCC(C)(C)C3)CC1` (centres undefined) belongs 6.34; to `CC1(C)CNc2c(cccc2S(=O)(=O)NC(Cc2nc3ccccc3s2)C(=O)N2CCC(CCO)CC2)C1` (centres undefined), 7.10.
On the same count and under the same terms, the figure for `CC1(C)CNc2c(cccc2S(=O)(=O)NC(Cc2nc3ccccc3s2)C(=O)N2CCC(CCF)CC2)C1` (stereo in doubt) is 7.55.
At Prothrombin, `CC1CNc2c(cccc2S(=O)(=O)N[C@@H](Cc2nc3ccccc3s2)C(=O)N2CCC(CCO)CC2)C1` (stereo in doubt; 23) gave a pKi of 6.93.
The same measure, in the same setting: to `CC1(C)CNc2c(cccc2S(=O)(=O)NC(Cc2nc3ccccc3s2)C(=O)N2CCC(CCF)CC2)C1` (stereo in doubt; 26) belongs 7.59.
On to `CC1CNc2c(cccc2S(=O)(=O)N[C@@H](Cc2nc3ccccc3s2)C(=O)N2CCC(CCO)CC2)C1` (stereo in doubt; 33), for which the pKi was 4.35 at Coagulation factor X; below 4.35 on Kallikrein-1; 3.90 on Serine protease 1; 6.93 on Prothrombin; 3.96 on Plasminogen.
